Results published in US20210393633A1, “INHIBITORS OF HUMAN IMMUNODEFICIENCY VIRUS REPLICATION” (ViiV HEALTHCARE UK (NO.5) LIMITED, priority 2018, published 2021).

Tests used:
[1] = Compound cytotoxicity, XTT-based colorimetric assay; type: cell-based; settings: human; uninfected MT2 cells, day 4, XTT
Description: Compound cytotoxicity and the corresponding CC50 values were determined using the same protocol as described in the antiviral assay except that uninfected cells were used. Cytotoxicity was assessed on day 4 in uninfected MT2 cells by using a XTT (2,3-bis[2-Methoxy-4-nitro-5-sulfophenyl]-2H-tetrazolium-5-carboxyanilide inner salt)-based colorimetric assay (Sigma-Aldrich, St Louis, Mo).

[2] = test system: recombinant NL4-3 virus (nef section replaced with Renilla luciferase gene) in MT-2 cells; test: HIV cell culture assay (antiviral activity, luciferase readout in infected MT-2 cells); type: cell-based; settings: NL43
Description: HIV cell culture assay—MT-2 cells, 293T cells and the proviral DNA clone of NL4-3 virus were obtained from the NIH AIDS Research and Reference Reagent Program. MT-2 cells were propagated in RPMI 1640 media supplemented with 10% heat inactivated fetal bovine serum (FBS), […]. The 293T cells were propagated in DMEM media supplemented with 10% heat inactivated FBS, […]. A recombinant NL4-3 proviral clone, in which a section of the nef gene was replaced with the Renilla luciferase gene, was used to make the reference virus used in these studies. The recombinant virus was prepared through transfection of the recombinant NL4-3 proviral clone into 293T cells using Transit-293 Transfection Reagent from Minis Bio LLC (Madison, Wis.). Supernatent was harvested after 2-3 days and the amount of virus present was titered in MT-2 cells using luciferase enzyme activity as a marker by measuring luciferase enzyme activity. Luciferase was quantitated using the EnduRen Live Cell Substrate from Promega (Madison, Wis.). Antiviral activities of compounds toward the recombinant virus were quantified by measuring luciferase activity in MT-2 cells infected for 4-5 days with the recombinant virus in the presence of serial dilutions of the compound.
The 50% effective concentration (EC5o) was calculated by using the exponential form of the median effect equation where (Fa)=1/[1+(ED50/drug conc.)m] (Johnson Va., Byington R T. Infectivity Assay. In Techniques in HIV Research. ed. Aldovini A, Walker B D. 71-76. New York: Stockton Press.1990). The 50% inhibitory concentration (EC50) was calculated by using the exponential form of the median effect equation where percent inhibition=1/[1 +(EC50/drug concentration)m], where m is a parameter that reflects the slope of the concentration-response curve.

SMILES	CC50 at 4 day [1]	EC50 [2]
Cn1nc(NS(C)(=O)=O)c2c(Cl)ccc(-n3c([C@H](Cc4cc(F)cc(F)c4)NC(=O)Cn4nc(C(F)F)c5c4C(F)(F)[C@@H]4C[C@H]54)nc4cc(CCc5ccccc5)ccc4c3=O)c21 (atropisomer, axis not shown; (P)) [Example 3, N—((S)-1-((3P)-3-(4-chloro-1-methyl-3-(methylsulfonamido)-1H-indazol-7-yl)-4-oxo-7-phenethyl-3,4-dihydroquinazolin-2-yl)-2-(3,5-difluorophenyl)ethyl)-2-((3bS,4aR)-3-(difluoromethyl)-5,5-difluoro-3b,4,4a,5-tetrahydro-1H-cyclopropa[3,4]cyclopenta[1,2-c]pyrazol-1-yl)acetamide]	> 1000 nM	0.771 nM
CCCCCCCCc1ccc2c(=O)n(-c3ccc(Cl)c4c(NS(C)(=O)=O)nn(C)c34)c([C@H](Cc3cc(F)cc(F)c3)NC(=O)Cn3nc(C(F)F)c4c3C(F)(F)[C@@H]3C[C@H]43)nc2c1 (atropisomer, axis not shown; (P)) [Example 4, N—((S)-1-((3P)-3-(4-chloro-1-methyl-3-(methylsulfonamido)-1H-indazol-7-yl)-7-octyl-4-oxo-3,4-dihydroquinazolin-2-yl)-2-(3,5-difluorophenyl)ethyl)-2-((3bS,4aR)-3-(difluoromethyl)-5,5-difluoro-3b,4,4a, 5-tetrahydro-1H-cyclopropa[3, 4]cyclopenta [1,2-c]pyrazol-1-yl)acetamide]	> 1000 nM	3.9 nM
Cn1nc(NS(C)(=O)=O)c2c(Cl)ccc(-n3c([C@H](Cc4cc(F)cc(F)c4)NC(=O)Cn4nc(C(F)F)c5c4C(F)(F)[C@@H]4C[C@H]54)nc4cc(Cc5ccccc5)ccc4c3=O)c21 (atropisomer, axis not shown; (P)) [Example 5, N—((S)-1-(7-benzyl-(3P)-3-(4-chloro-1-methyl-3-(methylsulfonamido)-1H-indazol-7-yl)-4-oxo-3,4-dihydroquinazolin-2-yl)-2-(3,5-difluorophenyl)ethyl)-2-((3bS,4aR)-3-(difluoromethyl)-5,5-difluoro-3b,4,4a,5-tetrahydro-1H-cyclopropa[3,4]cyclopenta[1,2-c]pyrazol-1-yl)acetamide]	> 1000 nM	0.221 nM
Cn1nc(NS(C)(=O)=O)c2c(Cl)ccc(-n3c([C@H](Cc4cc(F)cc(F)c4)NC(=O)Cn4nc(C(F)F)c5c4C(F)(F)[C@@H]4C[C@H]54)nc4cc(C5=CCCCC5)ccc4c3=O)c21 (atropisomer, axis not shown; (P)) [Example 6, N—((S)-1-((3P)-3-(4-chloro-1-methyl-3-(methylsulfonamido)-1H-indazol-7-yl)-7-(cyclohex-1-en-1-yl)-4-oxo-3,4-dihydroquinazolin-2-yl)-2-(3,5-difluorophenyl)ethyl)-2-((3bS,4aR)-3-(difluoromethyl)-5,5-difluoro-3b,4,4a,5-tetrahydro-1H-cyclopropa[3,4]cyclopenta[1,2-c]pyrazol-1-yl)acetamide]	> 1000 nM	1.32 nM
CC(C)=C(C)c1ccc2c(=O)n(-c3ccc(Cl)c4c(NS(C)(=O)=O)nn(C)c34)c([C@H](Cc3cc(F)cc(F)c3)NC(=O)Cn3nc(C(F)F)c4c3C(F)(F)[C@@H]3C[C@H]43)nc2c1 (atropisomer, axis not shown; (P)) [Example 7, N—((S)-1-((3P)-3-(4-chloro-1-methyl-3-(methylsulfonamido)-1H-indazol-7-yl)-7-(3-methylbut-2-en-2-yl)-4-oxo-3,4-dihydroquinazolin-2-yl)-2-(3,5-difluorophenyl)ethyl)-2-((3bS,4aR)-3-(difluoromethyl)-5,5-difluoro-3b,4,4a,5-tetrahydro-1H-cyclopropa[3,4]cyclopenta[1,2-c]pyrazol-1-yl)acetamide]	> 1000 nM	0.386 nM
Cn1nc(NS(C)(=O)=O)c2c(Cl)ccc(-n3c([C@H](Cc4cc(F)cc(F)c4)NC(=O)Cn4nc(C(F)F)c5c4C(F)(F)[C@@H]4C[C@H]54)nc4cc(C5=CCCC5)ccc4c3=O)c21 (atropisomer, axis not shown; (P)) [Example 8, N—((S)-1-((3P)-3-(4-chloro-1-methyl-3-(methylsulfonamido)-1H-indazol-7-yl)-7-(cyclopent-1-en-1-yl)-4-oxo-3,4-dihydroquinazolin-2-yl)-2-(3,5-difluorophenyl)ethyl)-2-((3bS,4aR)-3-(difluoromethyl)-5,5-difluoro-3b,4,4a,5-tetrahydro-1H-cyclopropa[3,4]cyclopenta[1,2-c]pyrazol-1-yl)acetamide]	> 1000 nM	0.392 nM
Cn1nc(NS(C)(=O)=O)c2c(Cl)ccc(-n3c([C@H](Cc4cc(F)cc(F)c4)NC(=O)Cn4nc(C(F)F)c5c4C(F)(F)[C@@H]4C[C@H]54)nc4cc(C5=CCOCC5)ccc4c3=O)c21 (atropisomer, axis not shown; (P)) [Example 9, N—((S)-1-((3P)-3-(4-chloro-1-methyl-3-(methylsulfonamido)-1H-indazol-7-yl)-7-(3,6-dihydro-2H-pyran-4-yl)-4-oxo-3,4-dihydroquinazolin-2-yl)-2-(3,5-difluorophenyl)ethyl)-2-((3bS,4aR)-3-(difluoromethyl)-5,5-difluoro-3b,4,4a,5-tetrahydro-1H-cyclopropa[3,4]cyclopenta[1,2-c]pyrazol-1-yl)acetamide]	> 1000 nM	0.064 nM
Cn1nc(NS(C)(=O)=O)c2c(Cl)ccc(-n3c([C@H](Cc4cc(F)cc(F)c4)NC(=O)Cn4nc(C(F)F)c5c4C(F)(F)[C@@H]4C[C@H]54)nc4cc(C5CCOCC5)ccc4c3=O)c21 (atropisomer, axis not shown; (P)) [Example 11, N—((S)-1-((3P)-3-(4-chloro-1-methyl-3-(methylsulfonamido)-1H-indazol-7-yl)-4-oxo-7-(tetrahydro-2H-pyran-4-yl)-3,4-dihydroquinazolin-2-yl)-2-(3,5-difluorophenyl)ethyl)-2-((3bS,4aR)-3-(difluoromethyl)-5,5-difluoro-3b,4,4a,5-tetrahydro-1H-cyclopropa[3,4]cyclopenta[1,2-c]pyrazol-1-yl)acetamide]	> 1000 nM	0.046 nM
Cn1nc(NS(C)(=O)=O)c2c(Cl)ccc(-n3c([C@H](Cc4cc(F)cc(F)c4)NC(=O)Cn4nc(C(F)F)c5c4C(F)(F)[C@@H]4C[C@H]54)nc4cc(CC5CC5)ccc4c3=O)c21 (atropisomer, axis not shown; (P)) [Example 12, N—((S)-1-((3P)-3-(4-chloro-1-methyl-3-(methylsulfonamido)-1H-indazol-7-yl)-7-(cyclopropylmethyl)-4-oxo-3,4-dihydroquinazolin-2-yl)-2-(3,5-difluorophenyl)ethyl)-2-((3bS,4aR)-3-(difluoromethyl)-5,5-difluoro-3b,4,4a,5-tetrahydro-1H-cyclopropal3,41cyclopenta[1,2-c]pyrazol-1-yl)acetamide]	> 1000 nM	0.142 nM
CN1CC=C(c2ccc3c(=O)n(-c4ccc(Cl)c5c(NS(C)(=O)=O)nn(C)c45)c([C@H](Cc4cc(F)cc(F)c4)NC(=O)Cn4nc(C(F)F)c5c4C(F)(F)[C@@H]4C[C@H]54)nc3c2)CC1 (atropisomer, axis not shown; (P)) [Example 13]	> 1000 nM	0.098 nM
CN1CCC(c2ccc3c(=O)n(-c4ccc(Cl)c5c(NS(C)(=O)=O)nn(C)c45)c([C@H](Cc4cc(F)cc(F)c4)NC(=O)Cn4nc(C(F)F)c5c4C(F)(F)[C@@H]4C[C@H]54)nc3c2)CC1 (atropisomer, axis not shown; (P)) [Example 14, N—((S)-1-((3P)-3-(4-chloro-1-methyl-3-(methylsulfonamido)-1H-indazol-7-yl)-7-(1-methylpiperidin-4-yl)-4-oxo-3,4-dihydroquinazolin-2-yl)-2-(3,5-difluorophenyl)ethyl)-2-((3bS,4aR)-3-(difluoromethyl)-5,5-difluoro-3b,4,4a,5-tetrahydro-1H-cyclopropa[3,4]cyclopenta[1,2-c]pyrazol-1-yl)acetamide]	> 500 nM	0.23 nM
CC(C)CCC(F)(F)c1ccc2c(=O)n(-c3ccc(Cl)c4c(NS(C)(=O)=O)nn(C)c34)c([C@H](Cc3cc(F)cc(F)c3)NC(=O)Cn3nc(C(F)F)c4c3C(F)(F)[C@@H]3C[C@H]43)nc2c1 (atropisomer, axis not shown; (P)) [Example 23, N—((S)-1-((3P)-3-(4-chloro-1-methyl-3-(methylsulfonamido)-1H-indazol-7-yl)-7-(1,1-difluoro-4-methylpentyl)-4-oxo-3,4-dihydroquinazolin-2-yl)-2-(3,5-difluorophenyl)ethyl)-2-((3bS,4aR)-3-(difluoromethyl)-5,5-difluoro-3b,4,4a,5-tetrahydro-1H-cyclopropa[3,4]cyclopenta[1,2-c]pyrazol-1-yl)acetamide]	–	4.4 nM
